Source: patent US6770279B1, “TNFα antagonists and cyclosporin in therapy of rheumatoid arthritis” (The Kennedy Institute of Rheumatology, priority 1992, dated 2004)

What was measured:
[1] = test system: collagen type II induced arthritis in the DBA/1 mouse; test: Collagen type II induced arthritis: clinical score; type: in vivo; conditions: Example 7B
Method: (§1) Male DBA/1 mice were immunized intradermally with 100 μg of bovine type II collagen emulsified in complete Freund's adjuvant (Difco Laboratories, East Molsey, UK). The mean day of onset of arthritis was approximately one month after immunization. […] Arthritis was monitored for paw-swelling (measured with calipers) for 10 days, after which the mice were sacrificed and joints were processed for histology.
Clinical Score was assessed on the following scale: 0=normal; 1=slight swelling and/or erythema; 2=pronounced edematous swelling; and 3=joint rigidity. […]
as §1, with “UK).” for “UK). The mean day of onset of arthritis was approximately one month after immunization.”, “paw swelling” for “paw-swelling”
Clinical score was assessed on the following scale: 0=normal; 1=slight swelling and/or erythema; 2=pronounced edematous swelling, and 3=joint rigidity. […]
as §1, with “UK).” for “UK). The mean day of onset of arthritis was approximately one month after immunization.”, “paw swelling” for “paw-swelling”, “histology. […]” for “histology.”

[2] = test system: TNF expression in the joints; test: Immunohistochemical studies of TNF expression in joints; type: in vivo, mouse; conditions: preliminary immunohistochemical studies; mice with collagen-induced arthritis
From the text: These findings indicate that rolipram is effective in established collagen-induced arthritis and may therefore be useful in the treatment of RA.

[3] = test system: collagen type II induced arthritis in the DBA/1 mouse; test: Collagen type II induced arthritis: limb involvement (number of arthritic limbs); type: in vivo; conditions: Example 2B; anti-TNF mAb 300 μg; methylprednisolone acetate 2 mg/kg
Method: Male DBA/1 mice were immunized intradermally at 8-12 weeks of age with 100 μg type II collagen emulsified in Freund's complete adjuvant (Difco Laboratories, East Molsey, UK). Day one of arthritis was considered to be the day that erythema and/or swelling was first observed in one or more limbs. Arthritis became clinically evident around 30 days after immunization with type II collagen. For each mouse, treatment was started on the first day that arthritis was observed and continued over a 10 day period, after which the mice were sacrificed and joints were processed for histology. Monoclonal antibody (mAb) treatment was administered on days 1, 4, and 7. For anti-TNF antibody, TN3-19.12, a neutralizing hamster IgG1 anti-TNFα/β monoclonal antibody (mAb), was used (Sheehan, K. C. et al., J. Immunology 142:3884-3893 (1989)). The isotype control was L2. The anti-TNF antibody and the isotype control were provided by R. Schreiber, Washington University Medical School (St. Louis, Mo., USA), in conjunction with Celltech (Slough, UK). The cell-depleting anti-CD4 monoclonal antibody (rat IgG2b) consisted of a 1:1 mixture of YTS 191.1.2 and YTA 3.1.2, provided by H. Waldmann (University of Cambridge, UK) (Galfre, G. et al., Nature 277: 131-133 (1979); Cobbold, S. P. et al., Nature 312: 548-551 (1984); Qin, S. et al., European J. Immunology 17:1159-1165 (1987)).
In collagen-induced arthritis, as in RA, it is usual for additional limbs to become involved after the initial appearance of clinical disease and new limb involvement is an important indicator of the progression of the disease. […]
Male DBA/1 mice were immunized intradermally with 100 μg of bovine type II collagen emulsified in complete Freund's adjuvant (Difco Laboratories, East Molsey, UK). […] Arthritis was monitored for clinical score and paw swelling (measured with calipers) for 10 days, after which the mice were sacrificed and joints were processed for histology. […]

Compound	mean clinical score on day 10 (±SE) ([1]; rolipram 3 mg/kg twice daily, anti-TNF mAb 300 μg days 1, 4, 7, maximum score 12)	severity of arthritis (clinical score) ([1]; rolipram 3, 5 or 10 mg/kg i.p. twice daily, vs Cremophor EL)	TNF expression in the joints [2]	Increase (%) in limbs affected [3] [%]	Limbs Affected (mean ± SEM) Day 1 [3]	Limbs Affected (mean ± SEM) Day 10 [3]
COc1ccc(C2CNC(=O)C2)cc1OC1CCCC1 (stereo not drawn) [rolipram]	1.0±0.3	significant reduction in the severity of arthritis	down-regulation of TNF expression in the joints			
CC(=O)OCC(=O)[C@@]1(O)CC[C@H]2[C@@H]3C[C@H](C)C4=CC(=O)C=C[C@]4(C)[C@H]3[C@@H](O)C[C@@]21C [Methylprednisolone acetate, methylprednisolone acetate]				33	1.00 ± 0.00	1.50 ± 0.22
